Measurements published in US11510920B2, “Compositions and methods for treating EZH2-mediated cancer” (Icahn School of Medicine at Mount Sinai, priority 2016, dated 2022).

These compounds were tested on HCC1187 cells (assay: Proliferation assay (IncuCyte cell confluence), HCC1187). Conditions: Homo sapiens, concentration for 50% of maximal inhibition of cell proliferation.
Type: cell-based
Experimental: (§1) 1-3×10^3 cells were seeded in 96-well plates in duplicates and treated at the indicated compound concentrations. Cells were monitored using the IncuCyte® live cell imaging system (Essen BioScience™, Ann Arbor, Mich.) which was placed in a cell culture incubator operated at 37° C. and 5% CO2. Cell confluence was determined using calculations derived from phase-contrast images. The concentration for 50% of maximal inhibition of cell proliferation (GI50) values were determined by fitting to a standard four-parameter logistic using GraphPad Prism® v5. Graphs depicting the GI50s of select EZH2 degraders/disruptors described here for various cancer cell lines are shown in FIGS. 4-49.
For `CCCc1cc(C)[nH]c(=O)c1CNC(=O)c1cc(-c2ccc(N3CCN(CCNC(=O)CCC45CC6CC(CC(C6)C4)C5)CC3)nc2)cc2c1cnn2C(C)C` [AM16-11A, 6-(6-(4-(2-(3-((1r,3s)-adamantan-1-yl)propanamido)ethyl)piperazin-1-yl)pyridin-3-yl)-1-isopropyl-N-((6-methyl-2-oxo-4-propyl-1,2-dihydro-pyridin-3-yl)methyl)-1H-indazole-4-carboxamide], the GI50 was 2.6 µM.
Work on `CCCc1cc(C)[nH]c(=O)c1CNC(=O)c1cc(-c2ccc(N3CCN(C(=O)CC45CC6CC(CC(C6)C4)C5)CC3)nc2)cc2c1cnn2C(C)C` [AM16-37A, 6-(6-(4-(2-((1s,3s)-adamantan-1-yl)acetyl)piperazin-1-yl)pyridin-3-yl)-1-isopropyl-N-((6-methyl-2-oxo-4-propyl-1,2-dihydropyridin-3-yl)methyl)-1H-indazole-4-carboxamide] yielded a GI50 of 2.1 µM.
Work on `CCCc1cc(C)[nH]c(=O)c1CNC(=O)c1cc(-c2ccc(N3CCN(C(=O)CCC45CC6CC(CC(C6)C4)C5)CC3)nc2)cc2c1cnn2C(C)C` [AM16-38A, 6-(6-(4-(3-((3r,5r,7r)-adamantan-1-yl)propanoyl)piperazin-1-yl)pyridin-3-yl)-1-isopropyl-N-((6-methyl-2-oxo-4-propyl-1,2-dihydropyridin-3-yl)methyl)-1H-indazole-4-carboxamide] yielded a GI50 of 2 µM.
`Cc1cc(C)c(CNC(=O)c2cc(-c3ccc(N4CCN(C(=O)CCC56CC7CC(CC(C7)C5)C6)CC4)nc3)cc3c2cnn3C(C)C)c(=O)[nH]1` [AM16-93A, 6-(6-(4-(3-((1r,3s)-adamantan-1-yl)propanoyl)piperazin-1-yl)pyridin-3-yl)-N-((4,6-dimethyl-2-oxo-1,2-dihydropyridin-3-yl)methyl)-1-isopropyl-1H-indazole-4-carboxamide] was tested, and the GI50 was 1.5 µM.
`Cc1cc(C)c(CNC(=O)c2cc(-c3ccc(N4CCN(C(=O)[C@H](C)CCC56CC7CC(CC(C7)C5)C6)CC4)nc3)cc3c2cnn3C(C)C)c(=O)[nH]1` [AM16-97A, 6-(6-(4-((2R)-4-((1r,3S)-adamantan-1-yl)-2-methylbutanoyl)piperazin-1-yl)pyridin-3-yl)-N-((4,6-dimethyl-2-oxo-1,2-dihydropyridin-3-yl)methyl)-1-isopropyl-1H-indazole-4-carboxamide] showed a GI50 of 1.2 µM.
Compound `Cc1cc(C)c(CNC(=O)c2cc(-c3ccc(N4CCN(CCCNC(=O)[C@H](C)CCC56CC7CC(CC(C7)C5)C6)CC4)nc3)cc3c2cnn3C(C)C)c(=O)[nH]1` [AM16-106A, 6-(6-(4-(3-((R)-4-((3R,5R,7R)-adamantan-1-yl)-2-methyl-butanamido)propyl)piperazin-1-yl)pyridin-3-yl)-N-((4,6-dimethyl-2-oxo-1,2-dihydro-pyridin-3-yl)methyl)-1-isopropyl-1H-indazole-4-carboxamide] has a GI50 of 4.3 µM.
`Cc1cc(C)c(CNC(=O)c2cc(-c3ccc(N4CCN(CCNC(=O)CCC56CC7CC(CC(C7)C5)C6)CC4)nc3)cc3c2cnn3C(C)C)c(=O)[nH]1` [XY019-44, 6-(6-(4-(2-(3-((3r,5r,7r)-adamantan-1-yl)propanamido)ethyl)piperazin-1-yl)pyridin-3-yl)-N-((4,6-dimethyl-2-oxo-1,2-dihydropyridin-3-yl)methyl)-1-isopropyl-1H-indazole-4-carboxamide] showed a GI50 of 2.2 µM.

Each compound was assayed on MDA-MB-468 cells (assay: Proliferation assay (IncuCyte cell confluence), MDA-MB-468). Conditions: Homo sapiens, concentration for 50% of maximal inhibition of cell proliferation.
Type: cell-based
Experimental: as §1
Work on `Cc1cc(C)c(CNC(=O)c2cc(-c3ccc(N4CCN(CCNC(=O)CCOCCNc5cccc6c5C(=O)N(C5CCC(=O)NC5=O)C6=O)CC4)nc3)cc3c2cnn3C(C)C)c(=O)[nH]1` (stereo not drawn) [AM29-177A, N-((4,6-dimethyl-2-oxo-1,2-dihydropyridin-3-yl)methyl)-6-(6-(4-(2-(3-(2-((2-(2,6-dioxopiperidin-3-yl)-1,3-dioxoisoindolin-4-yl)amino)ethoxy)propanamido)ethyl)piperazin-1-yl)pyridin-3-yl)-1-isopropyl-1H-indazole-4-carboxamide] yielded a GI50 of 2.5 µM.
For `Cc1cc(C)c(CNC(=O)c2cc(-c3ccc(N4CCN(CCNCCC56CC7CC(CC(C7)C5)C6)CC4)nc3)cc3c2c(C)cn3C(C)C)c(=O)[nH]1` [AM41-41A, 6-(6-(4-(2-((2-((3r,5r,7r)-adamantan-1-yl)ethyl)amino)ethyl)piperazin-1-yl)pyridin-3-yl)-N-((4,6-dimethyl-2-oxo-1,2-dihydropyridin-3-yl)methyl)-1-isopropyl-3-methyl-1H-indole-4-carboxamide], the GI50 was 2.3 µM.
With `CCN(c1cc(-c2ccc(CN3CCN(CCN(CCC45CC6CC(CC(C6)C4)C5)CCC45CC6CC(CC(C6)C4)C5)CC3)cc2)cc(C(=O)NCc2c(C)cc(C)[nH]c2=O)c1C)C1CCOCC1` [CZ40-75, 4′-((4-(2-((2-((1s,3S)-adamantan-1-yl)ethyl)(2-((3R,5R,7R)-adamantan-1-yl)ethyl)amino)ethyl)piperazin-1-yl)methyl)-N-((4,6-dimethyl-2-oxo-1,2-dihydropyridin-3-yl)methyl)-5-(ethyl(tetra-hydro-2H-pyran-4-yl)amino)-4-methyl-[1,1′-biphenyl]-3-carboxamide] the GI50 was 1.1 µM.
`CCN(c1cc(-c2ccc(CN3CCN(CCNC(=O)CCSCCC[C@@H]4/C=C(\C)C[C@H](C)C[C@H](OC)[C@H]5O[C@@](O)(C(=O)C(=O)N6CCCC[C@H]6C(=O)O[C@H](/C(C)=C/[C@@H]6CC[C@@H](O)[C@H](OC)C6)[C@H](C)[C@@H](O)CC4=O)[C@H](C)C[C@@H]5OC)CC3)cc2)cc(C(=O)NCc2c(C)cc(C)[nH]c2=O)c1C)C1CCOCC1` [CZ40-131, FK506 adduct with N-((4,6-dimethyl-2-oxo-1,2-dihydropyridin-3-yl)methyl)-5-(ethyl(tetrahydro-2H-pyran-4-yl)amino)-4′-((4-(2-(3-mercaptopropanamido)ethyl)piperazin-1-yl)methyl)-4-methyl-[1,1′-biphenyl]-3-carboxamide] showed a GI50 of 1.5 µM.
In the case of `CCN(c1cc(-c2ccc(CN3CCN(CCNCCC45CC6CC(CC(C6)C4)C5)CC3)cc2)cc(C(=O)NCc2c(C)cc(C)[nH]c2=O)c1C)C1CCOCC1` [CZ40-149, 4′-((4-(2-((2-((1s,3s)-adamantan-1-yl)ethyl)amino)ethyl)piperazin-1-yl)methyl)-N-((4,6-dimethyl-2-oxo-1,2-dihydropyridin-3-yl)methyl)-5-(ethyl(tetra-hydro-2H-pyran-4-yl)amino)-4-methyl-[1,1′-biphenyl]-3-carboxamide], the GI50 is reported as 1.8 µM.
With `Cc1cc(C)c(CNC(=O)c2c(C)n([C@@H](C)C3CCN(CCNC(=O)CC4C5CC6CC(C5)CC4C6)CC3)c3ccccc23)c(=O)[nH]1` (stereo partly drawn) [XF042-90, 1-((S)-1-(1-(2-(2-((1R,3S,5S,7S)-adamantan-2-yl)acetamido)ethyl)piperidin-4-yl)ethyl)-N-((4,6-dimethyl-2-oxo-1,2-dihydropyridin-3-yl)methyl)-2-methyl-1H-indole-3-carboxamide] the GI50 was 7.2 µM.
`CO[C@H]1C[C@@H](C)C/C(C)=C/[C@@H](CCCSCCC(=O)NCCN2CCC([C@H](C)n3c(C)c(C(=O)NCc4c(C)cc(C)[nH]c4=O)c4ccccc43)CC2)C(=O)C[C@H](O)[C@@H](C)[C@@H](/C(C)=C/[C@@H]2CC[C@@H](O)[C@H](OC)C2)OC(=O)[C@@H]2CCCCN2C(=O)C(=O)[C@]2(O)O[C@H]1[C@@H](OC)C[C@H]2C` [XF042-92, FK506 adduct with (S)-N-((4,6-dimethyl-2-oxo-1,2-dihydropyridin-3-yl)methyl)-1-(1-(1-(2-(3-mercaptopropanamido)ethyl)piperidin-4-yl)ethyl)-2-methyl-1H-indole-3-carboxamide] was tested, and the GI50 was 2.6 µM.
With `Cc1cc(C)c(CNC(=O)c2c(C)n([C@@H](C)C3CCN(CCN(CCC45CC6CC(CC(C6)C4)C5)CCC45CC6CC(CC(C6)C4)C5)CC3)c3ccccc23)c(=O)[nH]1` [XF042-93, 1-((S)-1-(1-(2-(bis(2-((3S,5S,7S)-adamantan-1-yl)ethyl)amino)ethyl)piperidin-4-yl)ethyl)-N-((4,6-dimethyl-2-oxo-1,2-dihydropyridin-3-yl)methyl)-2-methyl-1H-indole-3-carboxamide] the GI50 was 2.2 µM.
For `COc1cc(C)[nH]c(=O)c1CNC(=O)c1c(C)n([C@@H](C)C2CCN(CCN(CCC34CC5CC(CC(C5)C3)C4)CCC34CC5CC(CC(C5)C3)C4)CC2)c2ccccc12` [XF042-95, 1-((S)-1-(1-(2-(bis(2-((3S,5S,7S)-adamantan-1-yl)ethyl)amino)ethyl)piperidin-4-yl)ethyl)-N-((4-methoxy-6-methyl-2-oxo-1,2-dihydro-pyridin-3-yl)methyl)-2-methyl-1H-indole-3-carboxamide], the GI50 was 2.5 µM.
`Cc1cc(C)c(CNC(=O)c2c(C)n([C@@H](C)C3CCN(CCNCCC45CC6CC(CC(C6)C4)C5)CC3)c3ccccc23)c(=O)[nH]1` [XF042-133, 1-((S)-1-(1-(2-((2-((3S,5S,7S)-adamantan-1-yl)ethyl)amino)ethyl)piperidin-4-yl)ethyl)-N-((4,6-dimethyl-2-oxo-1,2-dihydropyridin-3-yl)methyl)-2-methyl-1H-indole-3-carboxamide] showed a GI50 of 4.9 µM.
`CO[C@H]1C[C@@H](C)C/C(C)=C/[C@@H](CCCSCCC(=O)NCCN2CCN(c3ccc(-c4cc(C(=O)NCc5c(C)cc(C)[nH]c5=O)c5cnn(C(C)C)c5c4)cn3)CC2)C(=O)C[C@H](O)[C@@H](C)[C@@H](/C(C)=C/[C@@H]2CC[C@@H](O)[C@H](OC)C2)OC(=O)[C@@H]2CCCCN2C(=O)C(=O)[C@]2(O)O[C@H]1[C@@H](OC)C[C@H]2C` [XY028-086, FK506 adduct with N-((4,6-dimethyl-2-oxo-1,2-dihydropyridin-3-yl)methyl)-1-isopropyl-6-(6-(4-(2-(3-mercaptopro-panamido)ethyl)piperazin-1-yl)pyridin-3-yl)-1H-indazole-4-carboxamide] gave a GI50 of 2.4 µM.
